Series [1] has as its target T1, Vitamin D3 receptor (Homo sapiens, UniProt P11473).
T1 sequence (P11473 whole entry): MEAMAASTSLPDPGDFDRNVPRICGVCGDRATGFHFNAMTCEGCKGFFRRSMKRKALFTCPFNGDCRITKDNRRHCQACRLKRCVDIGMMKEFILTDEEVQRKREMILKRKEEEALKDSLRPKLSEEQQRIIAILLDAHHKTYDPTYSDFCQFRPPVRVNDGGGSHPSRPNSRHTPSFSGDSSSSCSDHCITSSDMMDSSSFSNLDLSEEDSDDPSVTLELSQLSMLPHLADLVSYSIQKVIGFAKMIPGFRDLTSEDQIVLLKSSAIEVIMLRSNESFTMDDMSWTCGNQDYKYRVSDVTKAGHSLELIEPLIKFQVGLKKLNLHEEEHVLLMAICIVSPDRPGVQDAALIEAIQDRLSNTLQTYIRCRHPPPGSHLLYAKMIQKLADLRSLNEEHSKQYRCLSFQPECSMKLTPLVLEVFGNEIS
Put plainly: Displacement of [3H]-1,25(OH)2D3 from recombinant human VDR ligand binding domain. (Displacement assays read how much labelled ligand stays bound in the presence of the test substance.)

Series [2] concerns the target T2, Vitamin D3 receptor (Homo sapiens) (UniProt P11473).
T2 sequence (whole entry): T1 sequence (P11473 whole entry)
Put plainly: Displacement of [3H]-1,25(OH)2D3 from recombinant human VDR ligand binding domain relative to 1,25(OH)2D3.

Series [3] concerns the target T1, Vitamin D3 receptor. Put plainly: Agonist activity at VDR in human HEK293 cells assessed as transcriptional activity after 16 to 24 hrs by luciferase reporter gene assay. The class given is cell-based. For orientation: Reporter assays use an easily measured gene product as a stand-in for the process of interest.
Series [4] has as its target T2, Vitamin D3 receptor (Homo sapiens). Put plainly: Partial agonist activity at VDR in human HEK293 cells assessed as transcriptional activity after 16 to 24 hrs by luciferase reporter gene assay relative to 1,25(OH)2D3. The class given is cell-based.
For series [5] the target is unchanged. Put plainly: (§1) Agonist activity at VDR (unknown origin) expressed in HEK293 cells cotransfected with RXRalpha assessed as RXRalpha recruitment by two-hybrid assay. The series is classed as cell-based.
Series [6] is described as follows: Drug uptake in human MG63 cells at 1 uM after 5 mins by HPLC analysis in presence of 10% FBS. The class given is ADME, cell-based. The note with it: mg-63, 5 min.
Series [7] is described as follows: Drug uptake in human MG63 cells at 1 uM after 10 mins by HPLC analysis in presence of 10% FBS. The note with it: mg-63, 10 min. The class given is ADME, cell-based.
Series [8] in a line: Metabolic stability in human MG63 assessed as compound metabolized at 1 uM after 24 hrs by HPLC analysis. The class given is ADME, MG-63. The note with it: MG63 cells, read-out: Drug metabolism.
The target of series [9] is T1, Vitamin D3 receptor. The series is described as §1. The class given is cell-based.
The target of series [10] is T1, Vitamin D3 receptor. Put plainly: Agonist activity at VDR (unknown origin) expressed in HEK293 cells cotransfected with SRC1 assessed as SRC1 recruitment by two-hybrid assay. The class given is cell-based.
The target of series [11] is T1, Vitamin D3 receptor. Put plainly: Agonist activity at VDR (unknown origin) expressed in HEK293 cells cotransfected with NCoR assessed as decrease in NCoR recruitment by two-hybrid assay. The class given is cell-based.

The source made the active and inactive calls. The calls are words filed in the database; no cut-off is given here.

Regarding `C=C1[C@H](O)CC(=C/C=C2\CCC[C@]3(C)[C@@H](C#CC#C[C@H](O)CC45CC6CC(CC(C6)C4)C5)CC[C@@H]23)C[C@H]1O`, the IC50 (usually the concentration that gives 50% inhibition) at Vitamin D3 receptor [1] worked out at 35 nM. For the same molecule, in series [2], the Activity came to 1%. Besides, the EC50 (as a rule, the concentration at which the effect is half-maximal) on Vitamin D3 receptor [3] was found to be 30 nM. The Efficacy in series [4] came out at 59%. Besides, the result in series [5] was Active.
`C=C1[C@H](O)CC(=C/C=C2\CCC[C@]3(C)[C@@H](C#CC#C[C@H](O)C45CC6CC(CC(C6)C4)C5)CC[C@@H]23)C[C@H]1O`: at Vitamin D3 receptor [1], the IC50 came out at 12.5 nM. Besides, in series [2], the Activity came out at 3%. The EC50 at Vitamin D3 receptor [3] was 7 nM. The Efficacy in series [4] was 41%.
Regarding `C=C1[C@H](O)CC(=C/C=C2\CCC[C@]3(C)[C@@H](C#CC#C[C@@H](O)CC45CC6CC(CC(C6)C4)C5)CC[C@@H]23)C[C@H]1O`, the IC50 at Vitamin D3 receptor [1] worked out at 35 nM. Besides, in [2], the Activity worked out at 1%. Further, the EC50 at Vitamin D3 receptor [3] worked out at 20 nM. Also, in series [5], the result was Active.
Turning to `C=C1/C(=C\C=C2/CCC[C@]3(C)[C@@H]([C@H](C)CCCC(C)(C)O)CC[C@@H]23)C[C@@H](O)C[C@@H]1O` [CALCITRIOL], the figures for the Drug uptake in series [6] and in series [7] were 2.5% and 2.7%, respectively. The metabolised at 24 h, 1 µM in [8] amounted to 25%.
As for `C=C1[C@H](O)CC(=C/C=C2\CCC[C@]3(C)[C@@H](C#CC#C[C@@H](O)C45CC6CC(CC(C6)C4)C5)CC[C@@H]23)C[C@H]1O`, the results for the Drug uptake in series [6] and in series [7] were 5.9% and 7.7%, respectively. In addition, in series [8], the metabolised at 24 h, 1 µM came to 8%. The IC50 amounted to 5 nM on Vitamin D3 receptor [1] and 0.09 nM at Vitamin D3 receptor [11]. In addition, the Activity in series [2] worked out at 7%. Also, the concentration for a half-maximal effect (EC50) is 1.5 nM on Vitamin D3 receptor [3], 0.7 nM at Vitamin D3 receptor [9] and 4.5 nM on Vitamin D3 receptor [10]. Besides, in series [4], the Efficacy worked out at 86%.

The values are drawn from ChEMBL document CHEMBL3745604, “Synthesis, Biological Activities, and X-ray Crystal Structural Analysis of 25-Hydroxy-25(or 26)-adamantyl-17-[20(22),23-diynyl]-21-norvitamin D Compounds” (J Med Chem, 2015).
